Assay results as given in patent US20230157952A1, “METHOD FOR IMPROVING THE STABILITY OF A PHARMACEUTICAL COMPOSITION COMPRISING A HIGH PENETRATION DRUG, AND THE PHARMACEUTICAL COMPOSITION OBTAINED THEREFROM” (Techfields Inc., priority 2020, published 2023).
Non-standard residues stand in square brackets, D forms with d. *: point of attachment. Arg(NO2) = N=C(NCCC[C@H](N)C(=O)O)N[N+](=O)[O-]; OiPr = CC(C)O*

Tests used:
Type in all cases: physicochemical
[1] = Stability of the pure HPDs (dry solid) at 25° C./RH 60%; conditions: for Purity: pure HPD, 25° C./RH 60%; for Stability of the pure powder: room temperature (25° C./RH 60%)
[2] = Effect of pH value on the stability of the solution (purity); conditions: for Purity(%) from day 0-28 / Purity(%) from day 0-14: 25° C.
[3] = Effect of temperature (and pH) on the stability of the solution (purity); conditions: 5% solution with 1 equivalent sodium acetate in 25% ethanol, pH 4.49-4.51
[4] = day 28, pH 1.0, 7% in 25% ethanol
[5] = day 28, pH 2.0, 7% in 25% ethanol
[6] = day 28, pH 3.0, 7% in 25% ethanol
[7] = day 28, pH 3.7, 7% in 25% ethanol
[8] = day 28, pH 4.0, 7% in 25% ethanol
[9] = day 28, pH 4.3, 7% in 25% ethanol
[10] = day 28, pH 4.6, 7% in 25% ethanol
[11] = day 28, pH 5.0, 7% in 25% ethanol
[12] = day 28, pH 6.0, 7% in 25% ethanol
[13] = day 28, pH 7.0, 7% in 25% ethanol
[14] = day 28, pH 8.0, 7% in 25% ethanol
[15] = pure HPD at 25° C./RH 60%, in % (unit assumed)

CC(C)Cc1ccc([C@@H](C)C(=O)OC[C@@H]2CCCN2)cc1.Cl [C-7, 2-pyrrolidinemethyl (R,S)-2-(p-isobutylphenyl)propionate•HCl salt]
Purity ([1]; 9 month): 98.1 ± 0.1 | Purity ([1]; 18 month): 98.0 ± 0.3 | Purity ([1]; 24 month): 97.9 ± 0.1 | Purity(%) from day 0-28 [2, 4]: 66.8 ± 0.3% | Purity(%) from day 0-28 [2, 5]: 86.0 ± 0.4% | Purity(%) from day 0-28 [2, 6]: 86.0 ± 0.3% | Purity(%) from day 0-28 [2, 7]: 94.3 ± 0.3% | Purity(%) from day 0-28 [2, 8]: 95.8 ± 0.3% | Purity(%) from day 0-28 [2, 9]: 96.5 ± 0.4% | Purity(%) from day 0-28 [2, 10]: 96.2 ± 0.3% | Purity(%) from day 0-28 [2, 11]: 89.3 ± 0.2% | Purity(%) from day 0-28 [2, 12]: 86.2 ± 0.3% | Purity(%) from day 0-28 [2, 13]: 48.0 ± 0.3% | Purity(%) from day 0-28 [2, 14]: 34.3 ± 0.4%

CCN(CC)CCOC(=O)[C@H](C)c1ccc2cc(OC)ccc2c1.O=C(O)CC(O)(CC(=O)O)C(=O)O (racemic) [C-3, 2-(diethylamino)ethyl (R,S)-2-(6-methoxy-2-naphthyl) propionate•citric acid salt]
Purity ([1]; 12 month): 98.1 ± 0.3 | Purity ([1]; 18 month): 97.9 ± 0.4 | Purity ([1]; 24 month): 97.8 ± 0.3 | Purity(%) from day 0-28 ([2]; day 28, pH 1.0, 7% solution in water): 68.2 ± 0.4% | Purity(%) from day 0-28 ([2]; day 28, pH 2.0, 7% solution in water): 80.1 ± 0.3% | Purity(%) from day 0-28 ([2]; day 28, pH 3.0, 7% solution in water): 90.3 ± 0.3% | Purity(%) from day 0-28 ([2]; day 28, pH 3.7, 7% solution in water): 96.8 ± 0.2% | Purity(%) from day 0-28 ([2]; day 28, pH 4.0, 7% solution in water): 97.1 ± 0.2% | Purity(%) from day 0-28 ([2]; day 28, pH 4.3, 7% solution in water): 97.1 ± 0.3% | Purity(%) from day 0-28 ([2]; day 28, pH 4.6, 7% solution in water): 97.0 ± 0.3% | Purity(%) from day 0-28 ([2]; day 28, pH 5.0, 7% solution in water): 96.0 ± 0.3% | Purity(%) from day 0-28 ([2]; day 28, pH 6.0, 7% solution in water): 88.4 ± 0.3% | Purity(%) from day 0-28 ([2]; day 28, pH 7.0, 7% solution in water): 55.8 ± 0.4% | Purity(%) from day 0-28 ([2]; day 28, pH 8.0, 7% solution in water): 35.8 ± 0.5%

H-Ala-Pro-Gly-Pro-Arg(NO2)—OCH(CH3)2•HCl (H-APGP[Arg(NO2)]-OiPr; also: HCl salt) [T-2]
Purity (%) at day 30 (60° C.) [3]: 32.8 ± 0.2% | Purity (%) at day 90 (60° C.) [3]: 0% | Purity (%) at day 180 (60° C.) [3]: 0% | Purity (%) at day 360 (60° C.) [3]: 0% | Purity(%) at day 0 [3]: 98.9 ± 0.2% | Purity(%) at day 30 (5° C.) [3]: 98.8 ± 0.2% | Purity(%) at day 30 (25° C.) [3]: 97.8 ± 0.3% | Purity(%) at day 30 (40° C.) [3]: 71.3 ± 0.2% | Purity(%) at day 90 (5° C.) [3]: 98.5 ± 0.3% | Purity(%) at day 90 (25° C.) [3]: 97.0 ± 0.2% | Purity(%) at day 90 (40° C.) [3]: 33.6 ± 0.2% | Purity(%) at day 180 (5° C.) [3]: 97.8 ± 0.2% | Purity(%) at day 180 (25° C.) [3]: 95.2 ± 0.3% | Purity(%) at day 180 (40° C.) [3]: 13.6 ± 0.2% | Purity(%) at day 360 (5° C.) [3]: 97.4 ± 0.3% | Purity(%) at day 360 (25° C.) [3]: 92.3 ± 0.3% | Purity(%) at day 360 (40° C.) [3]: 0% | Purity at 3 month [1, 15]: 98.9 ± 0.3 | Purity at 6 month [1, 15]: 98.6 ± 0.2 | Purity at 9 month [1, 15]: 98.6 ± 0.3 | Purity at 12 month [1, 15]: 98.5 ± 0.2 | Purity at 18 month [1, 15]: 98.5 ± 0.2 | Purity at 24 month [1, 15]: 98.4 ± 0.2 | Purity at Day 0 [1, 15]: 98.9 ± 0.1 | Stability of the pure powder [1]: very stable

CC(C)Cc1ccc([C@@H](C)C(=O)OCCN(C)C)cc1.Cl (racemic) [C-5, 2-(dimethylamino)ethyl (R,S)-2-(p-isobutylphenyl)propionate•HCl salt]
Purity ([1]; 3 month): 98.1 ± 0.2 | Purity ([1]; 6 month): 98.1 ± 0.3 | Purity ([1]; 12 month): 98.0 ± 0.4 | Purity ([1]; 18 month): 97.9 ± 0.1 | Purity ([1]; 24 month): 97.7 ± 0.4 | Purity(%) from day 0-28 [2, 4]: 65.3 ± 0.3% | Purity(%) from day 0-28 [2, 5]: 77.4 ± 0.3% | Purity(%) from day 0-28 [2, 6]: 88.4 ± 0.2% | Purity(%) from day 0-28 [2, 7]: 95.7 ± 0.3% | Purity(%) from day 0-28 [2, 8]: 96.6 ± 0.4% | Purity(%) from day 0-28 [2, 9]: 96.8 ± 0.3% | Purity(%) from day 0-28 [2, 10]: 96.8 ± 0.2% | Purity(%) from day 0-28 [2, 11]: 93.1 ± 0.4% | Purity(%) from day 0-28 [2, 12]: 85.3 ± 0.2% | Purity(%) from day 0-28 [2, 13]: 47.1 ± 0.3% | Purity(%) from day 0-28 [2, 14]: 34.9 ± 0.5%

H-Tyr-Gly-Gly-Phe-Met-OCH(CH3)2.HCl [U-2]
Purity ([1]; 3 month): 98.9 ± 0.3 | Purity ([1]; 6 month): 98.6 ± 0.2 | Purity ([1]; 9 month): 98.6 ± 0.3 | Purity ([1]; 12 month): 98.5 ± 0.2 | Purity ([1]; 18 month): 98.5 ± 0.2 | Purity ([1]; 24 month): 98.4 ± 0.2 | Purity ([1]; Day 0): 98.9 ± 0.1 | Stability of the pure powder [1]: very stable | pH at which the solution is stable ([2]; 5% solution in 25% ethanol at 25° C.): 3-6 | Time the solution can be stored at room temperature ([2]; 5% solution in 25% ethanol, pH 3-6): about 1 year

CCCCC(=O)O.CCN(CC)CCOC(=O)c1ccccc1OC(C)=O [A-4, 2-(diethylamino)ethyl acetylsalicylate•valeric acid]
Purity ([1]; 6 month): 98.6 ± 0.1 | Purity ([1]; 12 month): 98.0 ± 0.2 | Purity ([1]; 18 month): 97.9 ± 0.2 | Purity ([1]; 24 month): 97.2 ± 0.1 | Purity ([1]; Day 0): 98.6 ± 0.2 | Purity(%) from day 0-14 ([2]; day 14, pH 1.0, 7% in water): 58.1 ± 0.3% | Purity(%) from day 0-14 ([2]; day 14, pH 2.0, 7% in water): 77.3 ± 0.2% | Purity(%) from day 0-14 ([2]; day 14, pH 3.0, 7% in water): 87.5 ± 0.3% | Purity(%) from day 0-14 ([2]; day 14, pH 3.7, 7% in water): 93.2 ± 0.3% | Purity(%) from day 0-14 ([2]; day 14, pH 4.0, 7% in water): 94.2 ± 0.4% | Purity(%) from day 0-14 ([2]; day 14, pH 4.3, 7% in water): 94.7 ± 0.2% | Purity(%) from day 0-14 ([2]; day 14, pH 4.6, 7% in water): 94.0 ± 0.2% | Purity(%) from day 0-14 ([2]; day 14, pH 5.0, 7% in water): 85.5 ± 0.4% | Purity(%) from day 0-14 ([2]; day 14, pH 6.0, 7% in water): 77.3 ± 0.3% | Purity(%) from day 0-14 ([2]; day 14, pH 7.0, 7% in water): 52.5 ± 0.4% | Purity(%) from day 0-14 ([2]; day 14, pH 8.0, 7% in water): 15.2 ± 0.4%
